{"source": "patent US20100267561A1", "about": "“HERBICIDAL PYRIDAZINONE DERIVATIVES” (priority 2007, published 2010)", "assay_in_all_cases": "Test E pre-/postemergence plant response", "format_in_all_cases": "in vivo", "key": {"[1]": {"system": "green foxtail (Setaria viridis)", "conditions": "scale 0 to 100", "outline": "(§1)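 Formulated in a non-phytotoxic solvent mixture containing surfactant, compound was applied to soil at planting or sprayed on emerged plants at the 1- to 4-leaf stage. Visual comparison with controls followed 14 to 21 days in the greenhouse; 0 = no effect, 100 = complete control.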"}, "[2]": {"system": "Italian ryegrass (Lolium multiflorum)", "conditions": "scale 0 to 100", "outline": "as §1"}, "kochia (Kochia scoparia)": {"system": "kochia (Kochia scoparia)", "conditions": "scale 0 to 100", "outline": "as §1"}, "[3]": {"system": "pitted morningglory (Ipomoea lacunosa)", "conditions": "scale 0 to 100", "outline": "as §1"}, "[4]": {"system": "large crabgrass (Digitaria sanguinalis)", "conditions": "scale 0 to 100", "outline": "as §1"}, "[5]": {"system": "barnyardgrass (Echinochloa crus-galli)", "outline": "as §1"}, "[6]": {"system": "black mustard (Brassica nigra)", "conditions": "scale 0 to 100", "outline": "as §1"}, "[7]": {"system": "prickly sida (Sida spinosa)", "conditions": "scale 0 to 100", "outline": "as §1"}, "[8]": {"system": "guineagrass (Panicum maximum)", "conditions": "scale 0 to 100", "outline": "as §1"}, "[9]": {"system": "quackgrass (Elytrigia repens)", "conditions": "scale 0 to 100", "outline": "as §1"}, "[10]": {"system": "broadleaf signalgrass (Brachiaria platyphylla)", "conditions": "scale 0 to 100", "outline": "as §1"}, "[11]": {"system": "purple nutsedge (Cyperus rotundus)", "conditions": "scale 0 to 100", "outline": "as §1"}, "[12]": {"system": "southern (S.) sandbur (Cenchrus echinatus)", "conditions": "scale 0 to 100", "outline": "as §1"}, "[13]": {"system": "common purslane (Portulaca oleracea)", "conditions": "scale 0 to 100", "outline": "as §1"}, "[14]": {"system": "surinam grass (Brachiaria decumbens)", "conditions": "scale 0 to 100", "outline": "as §1"}, "[15]": {"system": "common mallow (Malva sylvestris)", "conditions": "scale 0 to 100", "outline": "as §1"}, "[16]": {"system": "naked crabgrass (Digitaria nuda)", "conditions": "scale 0 to 100", "outline": "as §1"}}, "data": [{"smiles": "CCc1cc(-c2ccc(C(F)(F)F)cc2)nn1-c1c(OC(=O)OC(C)C)cnn(C)c1=O", "note": "[Compound 12]", "values": [{"measurement": "Plant response rating, Foxtail, Green", "setting": "[1]; 4 g ai/ha, Postemergence", "result": 30}, {"measurement": "Plant response rating, Foxtail, Green", "setting": "[1]; 8 g ai/ha, Preemergence", "result": 60}, {"measurement": "Plant response rating, Foxtail, Green", "setting": "[1]; 31 g ai/ha, Preemergence", "result": 100}, {"measurement": "Plant response rating, Foxtail, Green", "setting": "[1]; Postemergence, 8 g ai/ha", "result": 90}, {"measurement": "Plant response rating, Foxtail, Green", "setting": "[1]; Postemergence, 31 g ai/ha", "result": 100}, {"measurement": "Plant response rating, Foxtail, Green", "setting": "[1]; Preemergence, 4 g ai/ha", "result": 0}, {"measurement": "Plant response rating, Ryegrass, Italian", "setting": "[2]; 4 g ai/ha, Postemergence", "result": 75}, {"measurement": "Plant response rating, Ryegrass, Italian", "setting": "[2]; 31 g ai/ha, Preemergence", "result": 98}, {"measurement": "Plant response rating, Ryegrass, Italian", "setting": "[2]; Postemergence, 8 g ai/ha", "result": 100}, {"measurement": "Plant response rating, Ryegrass, Italian", "setting": "[2]; Postemergence, 31 g ai/ha", "result": 100}, {"measurement": "Plant response rating, Ryegrass, Italian", "setting": "[2]; Preemergence, 4 g ai/ha", "result": 40}, {"measurement": "Plant response rating, Kochia", "setting": "kochia (Kochia scoparia); 4 g ai/ha, Postemergence", "result": 0}, {"measurement": "Plant response rating, Kochia", "setting": "kochia (Kochia scoparia); 31 g ai/ha, Preemergence", "result": 0}, {"measurement": "Plant response rating, Kochia", "setting": "kochia (Kochia scoparia); Postemergence, 8 g ai/ha", "result": 0}, {"measurement": "Plant response rating, Kochia", "setting": "kochia (Kochia scoparia); Postemergence, 31 g ai/ha", "result": 0}, {"measurement": "Plant response rating, Kochia", "setting": "kochia (Kochia scoparia); Preemergence, 4 g ai/ha", "result": 0}, {"measurement": "Plant response rating, Morningglory", "setting": "[3]; 4 g ai/ha, Postemergence", "result": 0}, {"measurement": "Plant response rating, Morningglory", "setting": "[3]; 31 g ai/ha, Preemergence", "result": 0}, {"measurement": "Plant response rating, Morningglory", "setting": "[3]; Postemergence, 8 g ai/ha", "result": 0}, {"measurement": "Plant response rating, Morningglory", "setting": "[3]; Postemergence, 31 g ai/ha", "result": 0}, {"measurement": "Plant response rating, Morningglory", "setting": "[3]; Preemergence, 4 g ai/ha", "result": 0}, {"measurement": "Plant response rating, Crabgrass, Large", "setting": "[4]; 4 g ai/ha, Postemergence", "result": 0}, {"measurement": "Plant response rating, Crabgrass, Large", "setting": "[4]; 8 g ai/ha, Preemergence", "result": 35}, {"measurement": "Plant response rating, Crabgrass, Large", "setting": "[4]; 31 g ai/ha, Preemergence", "result": 98}, {"measurement": "Plant response rating, Crabgrass, Large", "setting": "[4]; Postemergence, 8 g ai/ha", "result": 65}, {"measurement": "Plant response rating, Crabgrass, Large", "setting": "[4]; Postemergence, 31 g ai/ha", "result": 95}, {"measurement": "Plant response rating, Crabgrass, Large", "setting": "[4]; Preemergence, 4 g ai/ha", "result": 0}, {"measurement": "Plant response rating, Barnyardgrass", "setting": "[5]; 4 g ai/ha, Postemergence, scale 0 to 100", "result": 90}, {"measurement": "Plant response rating, Barnyardgrass", "setting": "[5]; 8 g ai/ha, Preemergence, scale 0 to 100", "result": 70}, {"measurement": "Plant response rating, Barnyardgrass", "setting": "[5]; 31 g ai/ha, Preemergence, scale 0 to 100", "result": 95}, {"measurement": "Plant response rating, Barnyardgrass", "setting": "[5]; Postemergence, 8 g ai/ha, scale 0 to 100", "result": 100}, {"measurement": "Plant response rating, Barnyardgrass", "setting": "[5]; Postemergence, 31 g ai/ha, scale 0 to 100", "result": 100}, {"measurement": "Plant response rating, Barnyardgrass", "setting": "[5]; Preemergence, 4 g ai/ha, scale 0 to 100, 0 no effect, 100 complete control", "result": 20}, {"measurement": "Plant response rating, Mustard, Black", "setting": "[6]; 4 g ai/ha, Postemergence", "result": 0}, {"measurement": "Plant response rating, Mustard, Black", "setting": "[6]; 8 g ai/ha, Preemergence", "result": 0}, {"measurement": "Plant response rating, Mustard, Black", "setting": "[6]; 31 g ai/ha, Preemergence", "result": 0}, {"measurement": "Plant response rating, Mustard, Black", "setting": "[6]; Postemergence, 8 g ai/ha", "result": 0}, {"measurement": "Plant response rating, Mustard, Black", "setting": "[6]; Postemergence, 31 g ai/ha", "result": 0}, {"measurement": "Plant response rating, Mustard, Black", "setting": "[6]; Preemergence, 4 g ai/ha", "result": 0}, {"measurement": "Plant response rating, Prickly Sida", "setting": "[7]; 4 g ai/ha, Postemergence", "result": 0}, {"measurement": "Plant response rating, Prickly Sida", "setting": "[7]; 31 g ai/ha, Preemergence", "result": 0}, {"measurement": "Plant response rating, Prickly Sida", "setting": "[7]; Postemergence, 8 g ai/ha", "result": 0}, {"measurement": "Plant response rating, Prickly Sida", "setting": "[7]; Postemergence, 31 g ai/ha", "result": 0}, {"measurement": "Plant response rating, Prickly Sida", "setting": "[7]; Preemergence, 4 g ai/ha", "result": 0}, {"measurement": "Plant response rating, Guineagrass", "setting": "[8]; 4 g ai/ha, Postemergence", "result": 95}, {"measurement": "Plant response rating, Guineagrass", "setting": "[8]; 31 g ai/ha, Preemergence", "result": 100}, {"measurement": "Plant response rating, Guineagrass", "setting": "[8]; Postemergence, 8 g ai/ha", "result": 95}, {"measurement": "Plant response rating, Guineagrass", "setting": "[8]; Postemergence, 31 g ai/ha", "result": 95}, {"measurement": "Plant response rating, Guineagrass", "setting": "[8]; Preemergence, 4 g ai/ha", "result": 0}, {"measurement": "Plant response rating, Quackgrass", "setting": "[9]; 4 g ai/ha, Postemergence", "result": 20}, {"measurement": "Plant response rating, Quackgrass", "setting": "[9]; 31 g ai/ha, Preemergence", "result": 80}, {"measurement": "Plant response rating, Quackgrass", "setting": "[9]; Postemergence, 8 g ai/ha", "result": 30}, {"measurement": "Plant response rating, Quackgrass", "setting": "[9]; Postemergence, 31 g ai/ha", "result": 95}, {"measurement": "Plant response rating, Quackgrass", "setting": "[9]; Preemergence, 4 g ai/ha", "result": 0}, {"measurement": "Plant response rating, Signalgrass", "setting": "[10]; 4 g ai/ha, Postemergence", "result": 65}, {"measurement": "Plant response rating, Signalgrass", "setting": "[10]; 31 g ai/ha, Preemergence", "result": 95}, {"measurement": "Plant response rating, Signalgrass", "setting": "[10]; Postemergence, 8 g ai/ha", "result": 80}, {"measurement": "Plant response rating, Signalgrass", "setting": "[10]; Postemergence, 31 g ai/ha", "result": 100}, {"measurement": "Plant response rating, Signalgrass", "setting": "[10]; Preemergence, 4 g ai/ha", "result": 0}, {"measurement": "Plant response rating, Nutsedge, Purple", "setting": "[11]; 4 g ai/ha, Postemergence", "result": 0}, {"measurement": "Plant response rating, Nutsedge, Purple", "setting": "[11]; 31 g ai/ha, Preemergence", "result": 0}, {"measurement": "Plant response rating, Nutsedge, Purple", "setting": "[11]; Postemergence, 8 g ai/ha", "result": 0}, {"measurement": "Plant response rating, Nutsedge, Purple", "setting": "[11]; Postemergence, 31 g ai/ha", "result": 0}, {"measurement": "Plant response rating, Sandbur, S.", "setting": "[12]; 4 g ai/ha, Postemergence", "result": 90}, {"measurement": "Plant response rating, Sandbur, S.", "setting": "[12]; 31 g ai/ha, Preemergence", "result": 95}, {"measurement": "Plant response rating, Sandbur, S.", "setting": "[12]; Postemergence, 8 g ai/ha", "result": 98}, {"measurement": "Plant response rating, Sandbur, S.", "setting": "[12]; Postemergence, 31 g ai/ha", "result": 100}, {"measurement": "Plant response rating, Sandbur, S.", "setting": "[12]; Preemergence, 4 g ai/ha", "result": 0}, {"measurement": "Plant response rating, Purslane", "setting": "[13]; 4 g ai/ha, Postemergence", "result": 0}, {"measurement": "Plant response rating, Purslane", "setting": "[13]; 31 g ai/ha, Preemergence", "result": 0}, {"measurement": "Plant response rating, Purslane", "setting": "[13]; Postemergence, 8 g ai/ha", "result": 0}, {"measurement": "Plant response rating, Purslane", "setting": "[13]; Postemergence, 31 g ai/ha", "result": 0}, {"measurement": "Plant response rating, Purslane", "setting": "[13]; Preemergence, 4 g ai/ha", "result": 0}, {"measurement": "Plant response rating, Surinam Grass", "setting": "[14]; 4 g ai/ha, Postemergence", "result": 35}, {"measurement": "Plant response rating, Surinam Grass", "setting": "[14]; 31 g ai/ha, Preemergence", "result": 95}, {"measurement": "Plant response rating, Surinam Grass", "setting": "[14]; Postemergence, 8 g ai/ha", "result": 90}, {"measurement": "Plant response rating, Surinam Grass", "setting": "[14]; Postemergence, 31 g ai/ha", "result": 98}, {"measurement": "Plant response rating, Surinam Grass", "setting": "[14]; Preemergence, 4 g ai/ha", "result": 0}, {"measurement": "Plant response rating, Mallow", "setting": "[15]; 4 g ai/ha, Postemergence", "result": 0}, {"measurement": "Plant response rating, Mallow", "setting": "[15]; 31 g ai/ha, Preemergence", "result": 0}, {"measurement": "Plant response rating, Mallow", "setting": "[15]; Postemergence, 8 g ai/ha", "result": 0}, {"measurement": "Plant response rating, Mallow", "setting": "[15]; Postemergence, 31 g ai/ha", "result": 0}, {"measurement": "Plant response rating, Mallow", "setting": "[15]; Preemergence, 4 g ai/ha", "result": 0}, {"measurement": "Plant response rating, Crabgrass, Naked", "setting": "[16]; 4 g ai/ha, Postemergence", "result": 50}, {"measurement": "Plant response rating, Crabgrass, Naked", "setting": "[16]; 8 g ai/ha, Preemergence", "result": 95}, {"measurement": "Plant response rating, Crabgrass, Naked", "setting": "[16]; 31 g ai/ha, Preemergence", "result": 100}, {"measurement": "Plant response rating, Crabgrass, Naked", "setting": "[16]; Postemergence, 8 g ai/ha", "result": 90}, {"measurement": "Plant response rating, Crabgrass, Naked", "setting": "[16]; Postemergence, 31 g ai/ha", "result": 95}, {"measurement": "Plant response rating, Crabgrass, Naked", "setting": "[16]; Preemergence, 4 g ai/ha", "result": 15}]}]}
